*1 amine or outer side, *2 acyl side, *3 side chain or, on linkers, in order; H or OH if unused. Where a SMILES comes first, the peptide text is derived from it. Bridges are numbered along the chain shown (N, C = ends). [ ]: non-standard residue; d: D form. Trp(2-yl) = O=C([C@H](Cc1c([*:3])[nH]c2ccccc12)N[*:1])[*:2]; Leu(4R-OH,5-OH) = C[C@](O)(CO)C[C@H](N)C(=O)O; cisHyp = O=C(O)[C@@H]1C[C@H](O)CN1
Assays:
[1] = tested on: HoIB-GFP; experiment: HoIB-GFP (replisome) localization; assay type: cell-based, Caulobacter crescentus; conditions: 1 hr treatment
Description: To assess the ability of these cells to assemble a replisome at the replication origins, A22 was administered to cells expressing a fusion of GFP to the HoIB subunit of DNA polymerase.

[2] = tested on: Caulobacter; experiment: Caulobacter morphology (DIC images); assay type: cell-based, Caulobacter crescentus; conditions: drugs that affect eukaryotic actin
From the text: Consistent with previous observations in E. coli (Iwai et al., 2002), A22 caused a dose-dependent alteration of Caulobacter morphology, transforming normal, crescent-shaped cells into rounded, lemon-shaped cells. The progression of cell shape deformation by A22 treatment was qualitatively similar to that caused by mreB depletion, though the A22 effect was more rapid (FIGS. […]). […] For example, A22 could disrupt the localization of new cell wall synthesis but have no effect on the existing cell wall, such that without additional growth and wall synthesis A22's effects cannot be perceived. A dependence on cell growth could also explain why A22's effect on morphology takes several hours to manifest.
Microscopy and Timelapse Imaging. All experiments other than the A22 flow-cell analysis were performed by mounting the samples on 1% agarose pads as described, with the appropriate concentration of A22 added to the agarose. The rates of origin-distal locus segregation were determined by inducing PxyI:lacI:cfp expression with 0.03% xylose for 75 min, isolating swarmer cells, and growing the swarmer cells in M2G liquid medium for 50 min. After 50 min, 10 μg/ml of A22 was added to these liquid cultures, they were mounted onto 1% M2G agarose pads containing 10 μg/ml A22, and a phase and CFP fluorescence image was captured every 2 min for 60 min. The images were analyzed by previously described software to determine the average position and rate of movement of the observed foci.

[3] = tested on: B. subtilis 168; experiment: Determination of minimum inhibitory concentration (MIC); assay type: cell-based, Bacillus subtilis; conditions: for MIC: Bacillus subtilis, 168, read-out: MIC B. subtilis; for MIC B. subtilis: Example 2, methods as in Example 1
Description: (§1) Determination of minimum inhibitory concentration (MIC). MICs were also determined on Mueller Hinton agar plates (0.2% beef extract, 1.75% acid digest of casein, 0.15% soluble starch, 1.5% agar, pH 7.3).
(§2) Determination of MIC Minimal inhibitory concentrations (MICs) were determined using a standard 2-fold serial dilution format on L agar plates. Ten microliters of stationary culture diluted in 0.85% NaCl to 10^6 cells/ml were spotted on per plate. […] MICs were also determined on Mueller Hinton agar plates (0.2% beef extract, 1.75% acid digest of casein, 0.15% soluble starch, 1.5% agar, pH 7.3).

[4] = tested on: E. coli K-12 strain SH3210; experiment: Anucleate cell blue assay; assay type: cell-based
Description: Anucleate cell blue assay. The anucleate cell blue assay was carried out as reported previously. Briefly, E. coli K-12 strain SH3210 (ΔtrpE5 his λ pXX747) was grown in a P medium containing 1% Polypepton and 0.5% NaCl (pH 7). Paper disks (φ 8 mm) each soaked with 20 μl of a sample solution were placed on P medium agar plates (1.5% agar) containing 10^4 cells/ml of SH3210 and 40 μg/ml of 5-bromo-4-chloro-3-indolyl β-D-galactoside. The plates were incubated at 42° C. for 24 h, and the development of a blue color and the growth inhibitory zone around the paper disks were evaluated.
Since 1 had originally been found through screening by an anucleate cell blue assay, the effect of each compound was first examined by this assay.

[5] = tested on: S. typhimurium NBRC13245; experiment: Determination of minimum inhibitory concentration (MIC); assay type: cell-based, Salmonella typhimurium; conditions: for MIC S. typhimurium: Example 2, methods as in Example 1; for MIC: Salmonella enterica, read-out: MIC S. typhimurium
Description: as §1, §2

[6] = tested on: E. coli MG1655; experiment: Microscopic observation of cell shape; assay type: cell-based
Description: Microscopic observation. E. coli K-12 strain MG1655 (F^− λ^−) was grown in Lennox broth containing 1% Polypepton, 0.5% yeast extract, 0.5% NaCl, and 0.1% glucose (pH 7.2). Cells spread on a slide glass were treated with methanol for 5 min and covered with poly-L-lysine. The fixed cells were observed by the differential interference contrast system through an Axioskop 2 microscope (Carl Zeiss Co., Ltd., Oberkochen, Germany). To observe the anucleate cells, cells were stained with a 4′,6-diamidino-2-phenylindole (DAPI) solution (5 μg/ml in saline) and then observed by the fluorescence phase-contrast combined method.
The effect of each compound on E. coli cell morphology was next examined.

[7] = tested on: E. coli MG1655; experiment: Determination of minimum inhibitory concentration (MIC); assay type: cell-based; conditions: for MIC: Escherichia coli, MG1655, read-out: MIC E. coli; for MIC E. coli: Example 2, methods as in Example 1
Description: as §1, §2

[8] = tested on: S. aureus subsp. aureus NBRC15035; experiment: as above; assay type: cell-based, Staphylococcus aureus; conditions: for MIC S. aureus: Example 2, methods as in Example 1; for MIC: Staphylococcus aureus, NBRC15035, read-out: MIC S. aureus
Description: as §1, §2

[9] = tested on: P. putida NBRC14164; experiment: as above; assay type: cell-based, Pseudomonas putida; conditions: for MIC P. putida: Example 2, methods as in Example 1; for MIC: Pseudomonas putida, NBRC14164, read-out: MIC P. putida
Description: as §1, §2

[10] = Example 2, methods as in Example 1
[11] = E. coli MG1655 treated at 300 μg/ml (**), 30° C., 16 h

Compound	HoIB-GFP localization [1]	Caulobacter growth rate or morphology [2]	MIC [3] [µg/mL]	MIC B. subtilis [3] [µg/mL]	Growth inhibitory zone and blue zone in the anucleate cell blue assay (in words) [4]	MIC S. typhimurium [5] [µg/mL]	MIC [5] [µg/mL]	Shape ([6]; E. coli MG1655 treated at 3×MIC (*), 30° C., 16 h)	Shape [6, 10]	MIC [7] [µg/mL]	MIC E. coli [7] [µg/mL]	MIC S. aureus [8] [µg/mL]	MIC [8] [µg/mL]	MIC P. putida [9] [µg/mL]	MIC [9] [µg/mL]	Shape [6, 11]
CO[C@@H]1[C@@H](OC(N)=O)[C@@H](O)[C@H](Oc2ccc3c(O)c(NC(=O)c4ccc(O)c(CC=C(C)C)c4)c(=O)oc3c2C)OC1(C)C [novobiocin]	rapid delocalization of HoIB-GFP															
C[C@@H]1NC(=O)[C@H](C[C@@](C)(O)CO)NC(=O)[C@@H]2Cc3c([nH]c4ccccc34)SC[C@H](NC(=O)[C@@H]([C@H](C)O)NC1=O)C(=O)N1C[C@@H](O)C[C@H]1C(=O)N[C@@H](C)C(=O)N2 [phalloidin] (cyclo(A[dT]C[cisHyp]A[Trp(2-yl)][Leu(4R-OH,5-OH)]); thioether 3-6)		failed to perturb growth rate or morphology														
N#CSCc1ccccc1 [Compound 7, S-benzylithiocyanate, reference compound]			> 100	>100	neither a growth inhibitory zone nor blue zone	>100	> 100	Rod*	Rod	> 100	>100	>100	> 100	>100	> 100	
latrunculin		failed to perturb growth rate or morphology														
C/C1=C\[C@H](C)C[C@H](C)OC(=O)C[C@H](c2ccc(O)cc2)NC(=O)[C@@H](Cc2c(Br)[nH]c3ccccc23)N(C)C(=O)[C@H](C)NC(=O)[C@@H](C)C1 [jasplakinolide]		failed to perturb growth rate or morphology														
NC(=S)Nc1ccccc1 [Compound 10, N-phenylthiourea, reference compound]			> 100	>100	neither a growth inhibition nor blue zone	>100	> 100		Rod	> 100	>100	>100	> 100	>100	> 100	Rod**
CCSC(=N)N [Compound 6, S-ethylisothiourea]			> 100	>100	neither a growth inhibitory zone nor blue zone	>100	> 100		Rod	> 100	>100	>100	> 100	>100	> 100	Rod**

Reference: patent US7855228B2, “Antibiotics targeting MreB” (The Board of Trustees of the Leland Stamford Junior …, priority 2005, dated 2010)
